{"source": "patent US12521389B2", "about": "“Therapeutic approach to lung disease” (The Regents of the University of California, priority 2019, dated 2026)", "type_in_all_cases": "in vivo", "key": {"[1]": {"biological_target": "T1, CGRP receptor (Mus musculus, UniProt Q9R1W5+Q9WTJ5)", "T1 construct": "from tissue; host or cells: Live mouse pups on a B6 background (Nkx2-1 R191L NEHI model and control genotypes); lung, intranasal dosing", "T1 sequence (Q9R1W5 23-463)": "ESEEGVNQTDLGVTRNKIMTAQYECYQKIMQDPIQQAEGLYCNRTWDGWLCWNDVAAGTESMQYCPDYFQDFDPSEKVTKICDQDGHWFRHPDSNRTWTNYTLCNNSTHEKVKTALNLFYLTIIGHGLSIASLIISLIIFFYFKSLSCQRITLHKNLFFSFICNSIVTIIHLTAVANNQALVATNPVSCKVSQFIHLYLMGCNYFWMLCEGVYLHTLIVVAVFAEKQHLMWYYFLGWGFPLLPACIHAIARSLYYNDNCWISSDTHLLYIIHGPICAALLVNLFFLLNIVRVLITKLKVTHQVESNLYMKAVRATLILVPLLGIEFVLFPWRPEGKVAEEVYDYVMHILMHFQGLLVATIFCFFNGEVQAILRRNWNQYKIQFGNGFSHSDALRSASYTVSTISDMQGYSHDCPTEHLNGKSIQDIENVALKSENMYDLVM", "T1 sequence (Q9WTJ5 27-148)": "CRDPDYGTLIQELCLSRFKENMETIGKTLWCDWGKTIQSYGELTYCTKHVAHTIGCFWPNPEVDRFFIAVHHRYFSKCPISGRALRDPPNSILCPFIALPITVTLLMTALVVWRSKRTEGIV", "assay": "Lung wet-to-dry ratio (pulmonary edema) after intranasal BIBN-4096 in NEHI mouse model", "conditions": "Nkx2-1^L/L mutants; intranasal 10 ul of 0.3 mg/ml at P10, P12, P14, P16, P18; analyzed at P22; vs vehicle DMSO", "protocol": "Each lung was removed from sacrificed mouse right after euthanasia. Excessive blood was removed by kimwipe and wet weight mw was measured right after dissection. The lung was then placed on the foil at 70° C. for 24 hours. Dry weight […] was then measured by reweighing the dried lung. Wet-to-dry ratio was calculated as: W/D ratio=mw/md.\n(§1) BIBN-4096 (Fisher Scientific #45-611-0) was dissolved in 100% DMSO (Sigma-Aldrich D2650) and further diluted to working solution with saline before use. 10 ul of 0.3 mg/ml BIBN-4096 was intranasally administrated to pups at P10, P12, P14, P16 and P18."}, "[2]": {"biological_target": "T1, CGRP receptor", "assay": "Body size / weight gain after intranasal BIBN-4096 in NEHI mouse model", "conditions": "analyzed at P22", "protocol": "as §1"}, "[3]": {"biological_target": "T1, CGRP receptor", "assay": "Oxygen saturation (SpO2) by pulse-ox after intranasal BIBN-4096 in NEHI mouse model", "conditions": "Nkx2-1^L/L mutants; intranasal 10 ul of 0.3 mg/ml at P10-P18; analyzed at P22; vs vehicle DMSO", "protocol": "Pups were shaved and […] by isoflurane while pulse-ox (MouseOxPlus, Starr Life Sciences) was performing. The SpO2 reads were recorded after 5 minutes of stable measurement.\nas §1"}}, "note": "Entries after “also recorded” stand apart in the source; their conditions may differ."}
{"smiles": "NCCCC[C@H](NC(=O)[C@@H](Cc1cc(Br)c(O)c(Br)c1)NC(=O)N1CCC(N2Cc3ccccc3NC2=O)CC1)C(=O)N1CCN(c2ccncc2)CC1", "note": "[BIBN-4096, N-((1R)-2-(((1S)-5-amino-1-((4-(pyridin-4-yl)piperazin-1-yl)carbonyl)pentyl)amino)-1-(3,5-dibromo-4-hydroxybenzyl)-2-oxoethyl)-4-(2-oxo-1,4-dihydroquinazolin-3 (2H)-yl) piperidine-1-carboxamide]", "values": [{"measurement": "Lung wet-to-dry ratio (pulmonary edema)", "setting": "[1]", "result": "clear reversal; also recorded: attenuation of fluid in lung"}, {"measurement": "Body size / weight gain", "setting": "[2]; Nkx2-1^L/L mutants, intranasal 10 ul of 0.3 mg/ml at P10-P18, vs vehicle DMSO", "result": "clear reversal; also recorded: improved size"}, {"measurement": "Effects of treatment in control genotype groups", "setting": "[2]; control genotype groups, intranasal P10-P18, vs vehicle DMSO (FIG. 9B)", "result": "did not lead to detectable effects"}, {"measurement": "Oxygen saturation measured by pulse-ox (gas-exchange)", "setting": "[3]", "result": "clear reversal; also recorded: improved gas-exchange efficiency"}]}
